Converted amounts (≈) assume the structure as drawn. Where two headings read alike, the source gives them in different places.
How the values were obtained:
[1] = system: Ab ATCC 19606 (strain I); experiment: MIC determination (double dilution, Mueller-Hinton broth); type: cell-based, Acinetobacter baumannii; conditions: Acinetobacter baumannii, ATCC19606
Description: All bacterial strains listed above were stored at −80° C. All strains were streaked on Mueller-Hinton (MH) plates and allowed to grow at 37° C. overnight. […] The resulting culture was diluted 1:1000 and added to the prepared serially doubly diluted compound solutions in 96-well plates. For M. smegmatis, a 1:100 dilution of the bacteria was done in MH. All MIC values were determined using 96-well plates with low evaporation seals at least in duplicate. For each row, one well was reserved for sterile control (which consisted of 200 μL of MH medium) and another well was reserved for growth control (which consisted of 100 μL of MH medium seeded with 100 μL of bacterial culture).
(§1) Minimum inhibitory concentrations (MIC) of all compounds from the series were measured in liquid cultures of different Ab strains by a double-dilution method in Mueller-Hinton broth. Initially, the activity of all 46 compounds against Ab ATCC 19606 (a control strain) and Ab ATCC BAA1605 (a multidrug-resistant strain) (Table 1; data shown for 27 representative compounds) was measured.

[2] = system: Ab ATCC BAA1605 (strain J, multidrug-resistant); experiment: MIC determination; type: cell-based; conditions: Acinetobacter baumannii
Description: (§2) All bacterial strains listed above were stored at −80° C. All strains were streaked on Mueller-Hinton (MH) plates and allowed to grow at 37° C. overnight. Enough colonies were scraped from the plate and suspended in MH broth with vortexing to reach an attenuance at 600 nm (OD600) of ˜0.5. The resulting culture was diluted 1:1000 and added to the prepared serially doubly diluted compound solutions in 96-well plates. For M. smegmatis, a 1:100 dilution of the bacteria was done in MH. All MIC values were determined using 96-well plates with low evaporation seals at least in duplicate. For each row, one well was reserved for sterile control (which consisted of 200 μL of MH medium) and another well was reserved for growth control (which consisted of 100 μL of MH medium seeded with 100 μL of bacterial culture).
as §1

[3] = system: P. aeruginosa ATCC 27853; experiment: MIC determination; type: cell-based; conditions: Pseudomonas aeruginosa, ATCC27853
[4] = system: B. anthracis Sterne F32; experiment: microbe, parasite or virus in culture; type: cell-based; conditions: Bacillus anthracis
[5] = system: S. enterica ATCC 14028; experiment: MIC determination; type: cell-based; conditions: Salmonella enterica, ATCC14028
[6] = system: S. epidermidis ATCC 12228; experiment: MIC determination; type: cell-based; conditions: Staphylococcus epidermidis, ATCC12228
[7] = system: S. aureus ATCC 25923; experiment: MIC determination; type: cell-based; conditions: Staphylococcus aureus, ATCC25923
[8] = system: E. coli MC1061; experiment: MIC determination; type: cell-based; conditions: Escherichia coli; Table 5; Mueller-Hinton medium; D = E. coli MC1061; read-out: MIC strain D
[9] = system: Ab ATCC 19606; experiment: Development of resistance, 15-passage MIC assay; type: cell-based, Acinetobacter baumannii; conditions: Acinetobacter baumannii, ATCC19606, read-out: MIC before passaging
[10] = system: Ab ATCC 19606; experiment: Time-kill curves
[11] = system: K. pneumoniae ATCC 27736; experiment: MIC determination; type: cell-based; conditions: Klebsiella pneumoniae, ATCC27736
[12] = system: E. coli ATCC BAA 2469; experiment: MIC determination; type: cell-based; conditions: Escherichia coli, BAA2469; Table 3
[13] = system: K. pneumoniae ATCC BAA 1705; experiment: MIC determination; type: cell-based; conditions: Klebsiella pneumoniae, BAA1705; Table 3
[14] = system: E. cloacae ATCC 13047; experiment: MIC determination; type: cell-based; conditions: Enterobacter cloacae, ATCC13047
[15] = system: all 43 strains of A. baumannii (41 CDC strains and 2 ATCC strains); experiment: MIC value statistics for all A. baumannii strains; type: cell-based, Acinetobacter baumannii; conditions: of 43 A. baumannii strains
Description: as §2, with “[…].” for “For M. smegmatis, a 1:100 dilution of the bacteria was done in MH. All MIC values were determined using 96-well plates with low evaporation seals at least in duplicate.”
Having established that the observed activity is selective to A. baumannii, all synthesized compounds were tested against a panel of antibiotic resistant A. baumannii from the Antimicrobial Resistant (AR) Isolate Bank from the CDC along with strains I and J (Table Si). […]. Based on this statistical analysis, the best compound is 5e followed closely by 3e.

[16] = system: Gram-negative bacteria; experiment: MIC determination, panel statement; type: cell-based; conditions: moderate activity
[17] = system: Y. pestis CO92; experiment: microbe, parasite or virus in culture; type: cell-based; conditions: Yersinia pestis, CO92, read-out: MIC Y. pestis CO92
[18] = system: M. smegmatis; experiment: MIC determination; type: cell-based, Mycobacterium smegmatis; conditions: Mycolicibacterium smegmatis; Table 4
[19] = Table 5, Mueller-Hinton medium, I = A. baumannii ATCC 19606, read-out: MIC strain I
[20] = Table 5, Mueller-Hinton medium, J = A. baumannii BAA1605, read-out: MIC strain J
[21] = Table 5, Mueller-Hinton medium, G = P. aeruginosa ATCC 27853, read-out: MIC strain G
[22] = STERNEF32, read-out: MIC strain A
[23] = Table 5, Mueller-Hinton medium, H = S. enterica ATCC 14028, read-out: MIC strain H
[24] = Table 5, Mueller-Hinton medium, C = S. epidermidis ATCC 12228, read-out: MIC strain C
[25] = Table 5, Mueller-Hinton medium, B = S. aureus ATCC 25923, read-out: MIC strain B
[26] = Table 1, control strain, read-out: MIC Ab ATCC 19606
[27] = Table 1, multidrug-resistant strain, read-out: MIC Ab ATCC BAA 1605
[28] = Table 3, positive control strain, read-out: MIC A. Baumannii ATCC BAA 1605
[29] = Table 3, read-out: MIC K. pneumoniae ATCC 27736
[30] = Table 5, Mueller-Hinton medium, F = K. pneumoniae ATCC 27736, read-out: MIC strain F
[31] = Table 3, read-out: MIC P. aeruginosa ATCC 27853
[32] = Table 5, Mueller-Hinton medium, E = E. cloacae ATCC 13047, read-out: MIC strain E

| SMILES | MIC [1, 19] [µg/mL] | MIC [2, 20] [µg/mL] | MIC [3, 21] [µg/mL] | MIC [4, 22] [µg/mL] | MIC [5, 23] [µg/mL] | MIC [6, 24] [µg/mL] | MIC [7, 25] [µg/mL] | MIC [8] [µg/mL] | MIC [1, 26] [µg/mL] | MIC [2, 27] [µg/mL] | MIC [2, 28] [µg/mL] | MIC [11, 29] [µg/mL] | MIC [11, 30] [µg/mL] | MIC [3, 31] [µg/mL] | MIC [14, 32] [µg/mL] | number of compound/strain combinations with MIC value 0.25 μg/mL [15] | number of compound/strain combinations with MIC value 0.5 μg/mL [15] | number of compound/strain combinations with MIC value 1 μg/mL [15] | number of compound/strain combinations with MIC value ≤0.125 μg/mL [15] | MIC [16] [µg/mL] | further results |
| --- | --- | --- | --- | --- | --- | --- | --- | --- | --- | --- | --- | --- | --- | --- | --- | --- | --- | --- | --- | --- | --- |
| O=C(O)c1cn(C2CC2)c2cc(N3CCNCC3)c(F)cc2c1=O [CIP, ciprofloxacin, reference compound] | 1 (≈ 3.02 µM) | 2 (≈ 6.04 µM) | 0.25 (≈ 0.754 µM) | 1 (≈ 3.02 µM) | ≤ 0.0625 | ≤ 0.0625 | ≤ 0.0625 | ≤ 0.0625 | – | – | – | – | – | – | – | – | – | – | – | – | MIC [9]: 2 µg/mL (≈ 6.04 µM); bacteriostatic or bactericidal (time-kill) ([10]; 1×MIC and 4×MIC, up to 24 h): bactericidal; reduction of colony count ([10]; time-kill): 4100 fold |
| O=C(NNc1cccc(Cl)c1)c1ccccn1 [Compound 2b] | 2 (≈ 8.07 µM) | 1 (≈ 4.04 µM) | > 64 | > 64 | 16 (≈ 64.6 µM) | > 64 | > 64 | 4 (≈ 16.1 µM) | 2 (≈ 8.07 µM) | < 0.5 | ≤ 0.5 | 8 (≈ 32.3 µM) | 16 (≈ 64.6 µM) | > 128 | 4 (≈ 16.1 µM) | 13 | 13 | 12 | 2 | 4 to 16 (≈ 16.1 to 64.6 µM) | MIC [12]: 8 µg/mL (≈ 32.3 µM); MIC [13]: 16 µg/mL (≈ 64.6 µM); number of compound/strain combinations with MIC value 2 μg/mL [15]: 3 |
| COc1cccc(NNC(=O)c2ccccn2)c1 [Compound 2c] | – | – | – | – | – | – | – | – | 0.5 (≈ 2.06 µM) | 1 (≈ 4.11 µM) | 1 (≈ 4.11 µM) | > 128 | – | > 128 | – | 5 | 6 | 28 | 1 | – | MIC [12]: > 128 µg/mL; MIC [13]: > 128 µg/mL; number of compound/strain combinations with MIC value 2 μg/mL [15]: 3 |
| O=C(NNc1ccc(Cl)cc1)c1ccccn1 [Compound 2e] | 0.25 (≈ 1.01 µM) | 0.25 (≈ 1.01 µM) | > 64 | > 64 | 64 (≈ 258 µM) | > 64 | > 64 | 16 (≈ 64.6 µM) | 0.25 (≈ 1.01 µM) | 0.25 (≈ 1.01 µM) | – | – | 64 (≈ 258 µM) | – | 64 (≈ 258 µM) | 16 | 21 | 1 | 5 | – | MIC ([4]; STERNEF32, read-out: MIC B. anthracis Sterne F32): > 16 µg/mL; MIC ([5]; Table 4, read-out: MIC S. enterica ATCC 14028): > 16 µg/mL; MIC ([14]; Table 4, read-out: MIC E. cloacae ATCC 13047): > 16 µg/mL; MIC ([6]; Table 4, read-out: MIC S. epidermidis ATCC 12228): > 16 µg/mL; MIC ([7]; Table 4, read-out: MIC S. Aureus ATCC 25923): > 16 µg/mL; MIC [17]: 16 µg/mL (≈ 64.6 µM); MIC [18]: 4 µg/mL (≈ 16.1 µM) |
| O=C(NNc1ccc(Cl)cc1)c1cccc(F)n1 [Compound 5e] | ≤ 0.125 | ≤ 0.125 | > 64 | > 64 | 16 (≈ 60.2 µM) | > 64 | > 64 | 16 (≈ 60.2 µM) | 0.125 (≈ 0.47 µM) | 0.125 (≈ 0.47 µM) | – | – | 16 (≈ 60.2 µM) | – | 16 (≈ 60.2 µM) | 21 | 2 | – | 20 | 4 to 16 (≈ 15.1 to 60.2 µM) | – |
| O=C(NNc1ccc(Cl)cc1)c1ccccc1 [Compound 10e] | 0.25 (≈ 1.01 µM) | 0.5 (≈ 2.03 µM) | > 64 | > 64 | 64 (≈ 259 µM) | 64 (≈ 259 µM) | 64 (≈ 259 µM) | 16 (≈ 64.9 µM) | – | – | – | – | 16 (≈ 64.9 µM) | – | 16 (≈ 64.9 µM) | 23 | 6 | 1 | 13 | 4 to 16 (≈ 16.2 to 64.9 µM) | – |

Reference: patent US20260041683A1, “Compounds with Anti-Acinetobacter Baumannii Activity” (University of Kentucky Research Foundation, priority 2022, published 2026)
